# Measurements from patent US10131652B2, “Pyrimidinyloxy benzene derivatives as herbicides” (E. I. DU PONT DE NEMOURS AND COMPANY, priority 2014, dated 2018).
# Columns and labels:
# Assay type in all cases: in vivo
# [1] = tested on: giant foxtail (Setaria faberii); assay: Test B pre-/postemergence plant response
# From the text: (§1) Seeds of plant species selected from bamyardgrass (Echinochloa crus-galli), kochia (Kochia scoparia), ragweed (common ragweed, Ambrosia elatior), Italian ryegrass (Lolium multiflorum), large (Lg) crabgrass (Digitaria sanguinalis), giant foxtail (Setaria faberii), momingglory (Ipomoea spp.), pigweed (Amaranthus retroflexus), velvetleaf (Abutilon theophrasti), wheat (Triticum aestivum), and corn (Zea mays) were planted into a blend of loam soil and sand and treated preemergence with a directed soil spray using test chemicals formulated in a non-phytotoxic solvent mixture which included a surfactant. At the same time, plants selected from these crop and weed species and also blackgrass (Alopecurus myosuroides), and galium (catchweed bedstraw, Galium aparine) were planted in pots containing the same blend of loam soil and sand and treated with postemergence applications of test chemicals formulated in the same manner. Plants ranged in height from 2 to 10 cm and were in the one- to two-leaf stage for the postemergence treatment. Treated plants and untreated controls were maintained in a greenhouse for approximately 10 days, after which time all treated plants were compared to untreated controls and visually evaluated for injury. Plant response ratings, summarized in Table B, are based on a 0 to 100 scale where 0 is no effect and 100 is complete control. A dash (-) response means no test result.
# corn (Zea mays) = assay: Test B pre-/postemergence plant response
# From the text: as §1
# [2] = tested on: pigweed (Amaranthus retroflexus); assay: Test B pre-/postemergence plant response
# From the text: as §1
# [3] = tested on: wheat (Triticum aestivum); assay: Test B pre-/postemergence plant response
# From the text: as §1
# kochia (Kochia scoparia) = assay: Test B pre-/postemergence plant response
# From the text: as §1
# [4] = tested on: barnyardgrass (Echinochloa crus-galli); assay: Test B pre-/postemergence plant response
# From the text: as §1
# [5] = tested on: ragweed (common ragweed, Ambrosia elatior); assay: Test B pre-/postemergence plant response
# From the text: as §1
# [6] = tested on: Italian ryegrass (Lolium multiflorum); assay: Test B pre-/postemergence plant response
# From the text: as §1
# [7] = tested on: ducksalad (Heteranthera limosa); assay: Test C flooded paddy test plant response; conditions: Flood, 250 g ai/ha; scale of 0 to 100 where 0 is no effect and 100 is complete control; 13 to 15 days
# Experimental: (§2) Plant species in the flooded paddy test selected from rice (Oryza sativa), small-flower umbrella sedge (Cyperus difformis), ducksalad (Heteranthera limosa), and bamyardgrass (Echinochloa crus-galli) were grown to the 2-leaf stage for testing. At time of treatment, test pots were flooded to 3 cm above the soil surface, treated by application of test compounds directly to the paddy water, and then maintained at that water depth for the duration of the test. Treated plants and controls were maintained in a greenhouse for 13 to 15 days, after which time all species were compared to controls and visually evaluated. Plant response ratings, summarized in Table C, are based on a scale of 0 to 100 where 0 is no effect and 100 is complete control. A dash (-) response means no test result.
# rice (Oryza sativa) = assay: Test C flooded paddy test plant response; conditions: Flood, 250 g ai/ha; scale of 0 to 100 where 0 is no effect and 100 is complete control; 13 to 15 days
# Experimental: as §2
# [8] = tested on: small-flower umbrella sedge (Cyperus difformis); assay: Test C flooded paddy test plant response; conditions: Flood, 250 g ai/ha; scale of 0 to 100 where 0 is no effect and 100 is complete control; 13 to 15 days
# Experimental: as §2
# [9] = tested on: barnyardgrass (Echinochloa crus-galli); assay: Test C flooded paddy test plant response; conditions: Flood, 250 g ai/ha; scale of 0 to 100 where 0 is no effect and 100 is complete control; 13 to 15 days
# Experimental: as §2
# [10] = tested on: galium (catchweed bedstraw, Galium aparine); assay: Test B postemergence plant response
# From the text: (§3) At the same time, plants selected from these crop and weed species and also blackgrass (Alopecurus myosuroides), and galium (catchweed bedstraw, Galium aparine) were planted in pots containing the same blend of loam soil and sand and treated with postemergence applications of test chemicals formulated in the same manner. Plants ranged in height from 2 to 10 cm and were in the one- to two-leaf stage for the postemergence treatment. Treated plants and untreated controls were maintained in a greenhouse for approximately 10 days, after which time all treated plants were compared to untreated controls and visually evaluated for injury. Plant response ratings, summarized in Table B, are based on a 0 to 100 scale where 0 is no effect and 100 is complete control. A dash (-) response means no test result.
# [11] = tested on: blackgrass (Alopecurus myosuroides); assay: Test B postemergence plant response
# From the text: as §3
# [12] = 125 g ai/ha, postemergence, 0 to 100 scale, 0 no effect, 100 complete control
# [13] = Postemergence, 500 g ai/ha, 0 to 100 scale (0 no effect, 100 complete control)
# [14] = Preemergence, 125 g ai/ha, 0 to 100 scale where 0 is no effect and 100 is complete control
# [15] = Preemergence, 500 g ai/ha, 0 to 100 scale where 0 is no effect and 100 is complete control
SMILES,"Plant response rating, Foxtail, Giant [1, 12]","Plant response rating, Foxtail, Giant [1, 13]","Plant response rating, Foxtail, Giant [1, 14]","Plant response rating, Foxtail, Giant [1, 15]","Plant response rating, Corn (corn (Zea mays); [12])","Plant response rating, Corn (corn (Zea mays); [13])","Plant response rating, Pigweed [2, 12]","Plant response rating, Pigweed [2, 13]","Plant response rating, Pigweed [2, 14]","Plant response rating, Pigweed [2, 15]","Plant response rating, Wheat [3, 12]","Plant response rating, Wheat [3, 13]","Plant response rating, Kochia (kochia (Kochia scoparia); [12])","Plant response rating, Kochia (kochia (Kochia scoparia); [13])","Plant response rating, Kochia (kochia (Kochia scoparia); [14])","Plant response rating, Kochia (kochia (Kochia scoparia); [15])","Plant response rating, Barnyardgrass [4, 12]","Plant response rating, Barnyardgrass [4, 13]","Plant response rating, Barnyardgrass [4, 14]","Plant response rating, Barnyardgrass [4, 15]",other results
Cn1nnnc1-c1ccccc1Oc1ncc(Br)cn1 [Compound 49],0,10,0,20,0,10,10,30,20,30,10,20,30,30,0,70,0,10,0,0,"Plant response rating, Ragweed [5, 12]: 30; Plant response rating, Ragweed [5, 13]: 30; Plant response rating, Ragweed [5, 14]: 0; Plant response rating, Ragweed [5, 15]: 0; Plant response rating, Ryegrass, Italian [6, 12]: 0; Plant response rating, Ryegrass, Italian [6, 13]: 0; Plant response rating, Ryegrass, Italian [6, 14]: 0; Plant response rating, Ryegrass, Italian [6, 15]: 0; Ducksalad plant response rating [7]: 0; Rice plant response rating (rice (Oryza sativa)): 0; Sedge, Umbrella plant response rating [8]: 0; Barnyardgrass plant response rating [9]: 0; Plant response rating, Galium [10, 12]: 20; Plant response rating, Galium [10, 13]: 60; Plant response rating, Blackgrass [11, 12]: 0; Plant response rating, Blackgrass [11, 13]: 10"
Cn1cc(-c2ccccc2Oc2ncc(Cl)cn2)nn1 [Compound 51],10,50,10,60,0,0,70,80,50,100,0,10,70,100,10,70,0,0,0,10,"Plant response rating, Ragweed [5, 12]: 20; Plant response rating, Ragweed [5, 13]: 60; Plant response rating, Ragweed [5, 14]: 50; Plant response rating, Ragweed [5, 15]: 50; Plant response rating, Ryegrass, Italian [6, 12]: 0; Plant response rating, Ryegrass, Italian [6, 13]: 0; Plant response rating, Ryegrass, Italian [6, 14]: 0; Plant response rating, Ryegrass, Italian [6, 15]: 0; Ducksalad plant response rating [7]: 30; Rice plant response rating (rice (Oryza sativa)): 0; Sedge, Umbrella plant response rating [8]: 0; Barnyardgrass plant response rating [9]: 0; Plant response rating, Galium [10, 12]: 60; Plant response rating, Galium [10, 13]: 90; Plant response rating, Blackgrass [11, 12]: 0; Plant response rating, Blackgrass [11, 13]: 50"
Cn1nncc1-c1ccccc1Oc1ncc(Cl)cn1 [Compound 52],0,0,0,0,0,10,30,60,40,50,0,20,20,50,0,30,0,10,0,0,"Plant response rating, Ragweed [5, 12]: 20; Plant response rating, Ragweed [5, 13]: 20; Plant response rating, Ragweed [5, 14]: 0; Plant response rating, Ragweed [5, 15]: 0; Plant response rating, Ryegrass, Italian [6, 12]: 0; Plant response rating, Ryegrass, Italian [6, 13]: 0; Plant response rating, Ryegrass, Italian [6, 14]: 0; Plant response rating, Ryegrass, Italian [6, 15]: 0; Ducksalad plant response rating [7]: 0; Rice plant response rating (rice (Oryza sativa)): 0; Sedge, Umbrella plant response rating [8]: 0; Barnyardgrass plant response rating [9]: 0; Plant response rating, Galium [10, 12]: 40; Plant response rating, Galium [10, 13]: 50; Plant response rating, Blackgrass [11, 12]: 0; Plant response rating, Blackgrass [11, 13]: 10"
